In patent publication US20060069132A1, “Azolecarboxamide herbicides” (priority 2004, published 2006):

Experiments:
corn = assay: Test B pre-/postemergence herbicide test; format: in vivo, Zea mays; details: for Corn plant response rating: postemergence
Procedure, shortened: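 Formulation: non-phytotoxic solvent mix with surfactant. Timing: preemergence on seed and postemergence on 2–18 cm plants, applied concurrently. Readout after 13–15 d greenhouse: visual 0–100 control rating against controls.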

woolly cupgrass = assay: Test C pre-/postemergence herbicide test; format: in vivo, Eriochloa villosa; details: for Cupgrass, Woolly plant response rating: 500 g ai/ha
Procedure, shortened: (§1)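 Seeds were planted and sprayed preemergence with test chemicals in a non-phytotoxic solvent mixture containing surfactant; postemergence treatments went onto plants 2 to 18 cm tall (1- to 4-leaf stage). After 12 to 14 days in a greenhouse, injury was rated visually against untreated controls on a 0–100 scale.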

rice = assay: Test C flooded paddy test; format: in vivo, Oryza sativa; details: for Plant response rating, Rice: 500 g ai/ha, visual rating after 12 to 14 days
Procedure, shortened: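 Postemergence sprays applied to plants 2 to 18 cm tall (1- to 4-leaf stage); paddy species grown to 2-leaf stage under flooding. After 12 to 14 days in greenhouse, visual rating versus untreated controls on 0–100 scale (0 no effect, 100 complete control).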

common ragweed = assay: Test C pre-/postemergence herbicide test; format: in vivo, Ambrosia elatior; design: key to Plant response rating, Ragweed: 0 = no effect, 100 = complete control; details: for Ragweed plant response rating: 500 g ai/ha
Procedure, shortened: as §1

ducksalad = assay: Test C flooded paddy test; format: in vivo, Heteranthera limosa; details: for Plant response rating, Ducksalad: 500 g ai/ha, visual rating after 12 to 14 days
redroot pigweed = assay: Test A pre-/postemergence herbicide test; format: in vivo, Amaranthus retroflexus
Procedure, shortened: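 Seeds sown in sandy loam received a preemergence directed soil spray of compound in non-phytotoxic solvent with surfactant; postemergence plants (2–10 cm, one- to two-leaf stage) were sprayed to runoff at the same time. After ~10 days in greenhouse, injury was rated visually versus untreated controls (0 = no effect, 100 = complete control).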

soybean = assay: Test C pre-/postemergence herbicide test; format: in vivo, Glycine max; details: for Soybean plant response rating: 500 g ai/ha
Procedure, shortened: as §1

blackgrass = assay: Test B postemergence herbicide test; format: in vivo, Alopecurus myosuroides; details: for Blackgrass plant response rating: postemergence
Procedure, shortened: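 Greenhouse test; postemergence application to plants at 1–4 leaves (2–18 cm); paddy species at 2 leaves; evaluated visually vs controls at 13–15 days; scale 0–100 (100 = complete control).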

[1] = 500 g ai/ha, visual rating 0-100, 0 no effect, 100 complete control, preemergence
[2] = 125 g ai/ha, visual rating, scale 0 (no effect) to 100 (complete control)
[3] = 500 g ai/ha, visual rating, scale 0 (no effect) to 100 (complete control)
[4] = preemergence, 125 g ai/ha, 0 to 100 scale, 0 is no effect, 100 is complete control
[5] = 125 g ai/ha, scale 0 (no effect) to 100 (complete control), visual, 12 to 14 days, preemergence
[6] = 250 g ai/ha, scale 0 to 100 (0 no effect, 100 complete control), visual, 12 to 14 days, preemergence
[7] = Preemergence, scale 0 to 100, 0 no effect, 100 complete control
[8] = 62 g ai/ha, scale 0 to 100 (0 no effect, 100 complete control)
[9] = 125 g ai/ha, scale 0 to 100 (0 no effect, 100 complete control)
[10] = 250 g ai/ha, scale of 0 to 100, 0 is no effect, 100 is complete control
[11] = scale 0 to 100 (0 no effect, 100 complete control)
[12] = 500 g ai/ha, scale 0 to 100, 0 is no effect, 100 is complete control
[13] = Postemergence, 250 g ai/ha, scale 0 to 100, 0 no effect, 100 complete control
[14] = postemergence, 125 g ai/ha, scale 0 to 100
[15] = postemergence, 62 g ai/ha, scale 0 to 100
[16] = Postemergence, 500 g ai/ha, 0 to 100 scale, 0 no effect, 100 complete control
[17] = Postemergence, 2000 g ai/ha, 0 to 100 scale, 0 no effect, 100 complete control
[18] = Preemergence, 2000 g ai/ha, visual rating, 0 to 100 scale (0 no effect, 100 complete control)
[19] = preemergence, 500 g ai/ha, visual injury, 0 to 100 scale (0 no effect, 100 complete control)
[20] = Postemergence, 500 g ai/ha, visual rating after 13 to 15 days, scale 0 (no effect) to 100 (complete control)
[21] = 125 g ai/ha, scale of 0 to 100, 0 is no effect, 100 is complete control

SMILES	Plant response rating, Corn (corn; [1])	Corn plant response rating (corn; [2])	Plant response rating, Corn (corn; [4])	Plant response rating (0 = no effect, 100 = complete control), Cupgrass, Woolly (woolly cupgrass; 62 g ai/ha, preemergence)	Plant response rating, Cupgrass, Woolly (woolly cupgrass; [5])	Plant response rating, Cupgrass, Woolly (woolly cupgrass; [6])	Rice plant response rating (rice; [8])	Rice plant response rating (rice; [9])	Rice plant response rating (rice; [10])	Plant response rating, Rice (rice; [11])	Plant response rating (0 = no effect, 100 = complete control), Ragweed (common ragweed; 62 g ai/ha, preemergence)	Plant response rating, Ragweed (common ragweed; [5])	Ducksalad plant response rating (ducksalad; [8])	Ducksalad plant response rating (ducksalad; [9])	Ducksalad plant response rating (ducksalad; [10])	Plant response rating, Ducksalad (ducksalad; [11])	Plant response rating, Soybean (soybean; [5])	Blackgrass plant response rating (blackgrass; [2])	Pigweed plant response rating (redroot pigweed; [16])	Plant response rating, Pigweed (redroot pigweed; [17])	also measured
CCn1nc(C(C)(C)C)cc1C(=O)Nc1cccc(S(=O)(=O)C(F)(F)F)c1 [Compound 134]	10	20	0	0	0	20	35	45	55	60	0	25	45	70	90	90	0	0			Corn plant response rating (corn; [3]): 30; Cupgrass, Woolly plant response rating (woolly cupgrass; [7]): 45; Ragweed plant response rating (common ragweed; [7]): 100; Pigweed plant response rating (redroot pigweed; Postemergence, 250 g ai/ha, 0 to 100 scale, 0 no effect, 100 complete control): 85; Plant response rating, Pigweed (redroot pigweed; Postemergence, 1000 g ai/ha, 0 to 100 scale, 0 no effect, 100 complete control): 100; Pigweed plant response rating (redroot pigweed; Preemergence, 1000 g ai/ha, visual rating, 0 to 100 scale (0 no effect, 100 complete control)): 100; Pigweed plant response rating (redroot pigweed; preemergence, 250 g ai/ha, visual injury, 0 to 100 scale (0 no effect, 100 complete control)): 35; Plant response rating (0 = no effect, 100 = complete control), Soybean (soybean; 62 g ai/ha, preemergence): 0; Soybean plant response rating (soybean; [7]): 35; Blackgrass plant response rating (blackgrass; [3]): 20
CCn1nc(C(C)(C)C)cc1C(=O)Nc1cccc(OC(F)(F)F)c1 [Compound 272]		30						10	15	20				20	40	85		60	100	100	Corn plant response rating (0 to 100 scale) (corn; 125 g ai/ha, 0 = no effect, 100 = complete control, preemergence): 0; Plant response rating, Corn (corn; 500 g ai/ha, visual rating, 0 = no effect, 100 = complete control, preemergence): 10; Corn plant response rating (corn; [12]): 40; Cupgrass, Woolly plant response rating (woolly cupgrass; Postemergence, scale 0 to 100): 65; Plant response rating, Cupgrass, Woolly (woolly cupgrass; [13]): 60; Plant response rating, Cupgrass, Woolly (woolly cupgrass; [14]): 40; Plant response rating, Cupgrass, Woolly (woolly cupgrass; [15]): 25; Rice plant response rating (rice; 62 g ai/ha, scale 0 to 100): 0; Ragweed plant response rating (common ragweed; Postemergence, scale 0 to 100): 95; Plant response rating, Ragweed (common ragweed; [13]): 80; Plant response rating, Ragweed (common ragweed; [14]): 65; Plant response rating, Ragweed (common ragweed; [15]): 60; Ducksalad plant response rating (ducksalad; 62 g ai/ha, scale 0 to 100): 10; Pigweed plant response rating (redroot pigweed; [18]): 100; Pigweed plant response rating (redroot pigweed; [19]): 100; Soybean plant response rating (soybean; Postemergence, scale 0 to 100): 95; Plant response rating, Soybean (soybean; [13]): 85; Plant response rating, Soybean (soybean; [14]): 80; Plant response rating, Soybean (soybean; [15]): 60; Blackgrass plant response rating (blackgrass; [12]): 100
CC(=NO)c1cccc(NC(=O)c2cc(C(C)(C)C)nn2C)c1 [Compound 102]	50	20	0	0	10	20	20		40	60	10	20	20		90	90	0	0	95	100	Plant response rating, Corn (corn; [20]): 40; Cupgrass, Woolly plant response rating (woolly cupgrass; [7]): 40; Rice plant response rating (rice; [21]): 30; Ragweed plant response rating (common ragweed; [7]): 100; Ducksalad plant response rating (ducksalad; [21]): 80; Pigweed plant response rating (redroot pigweed; Preemergence, 500 g ai/ha, visual rating, 0 to 100 scale (0 no effect, 100 complete control)): 80; Pigweed plant response rating (redroot pigweed; [18]): 90; Plant response rating (0 = no effect, 100 = complete control), Soybean (soybean; 62 g ai/ha, preemergence): 0; Soybean plant response rating (soybean; [7]): 20; Plant response rating, Blackgrass (blackgrass; [20]): 20
CCn1nc(C(C)(C)C)cc1C(=O)Nc1cccc(C#N)c1 [Compound 139]	40	10	10	0	10	55	0	35	45	60	50	50	0	70	85	90	10	0	75	100	Corn plant response rating (corn; [3]): 20; Plant response rating, Cupgrass, Woolly (woolly cupgrass; [13]): 5; Plant response rating, Cupgrass, Woolly (woolly cupgrass; [14]): 0; Plant response rating, Cupgrass, Woolly (woolly cupgrass; [15]): 0; Plant response rating, Ragweed (common ragweed; [13]): 45; Plant response rating, Ragweed (common ragweed; [14]): 45; Plant response rating, Ragweed (common ragweed; [15]): 0; Pigweed plant response rating (redroot pigweed; [18]): 100; Pigweed plant response rating (redroot pigweed; [19]): 100; Plant response rating, Soybean (soybean; [13]): 35; Plant response rating, Soybean (soybean; [14]): 30; Plant response rating, Soybean (soybean; [15]): 20; Blackgrass plant response rating (blackgrass; [3]): 10
